Reference: US20250144179A1, “PEPTIDE HORMONE TO PREVENT OR TREAT VASOSPASM, BRAIN INJURY OR CEREBRAL EDEMA” (UNIVERSITY OF FLORIDA RESEARCH FOUNDATION, INCORPORATED, priority 2022, published 2025)
Entries after “also recorded” stand apart in the source; their conditions may differ.

Assays:
MMP9 = assay: Western blot of MMP9 in brain after SAH; assay type: in vivo, mouse; settings: wild-type mice, adropin 450 nmol/kg i.p. vs vehicle
Description: (§1) Synthetic adropin^34-76 peptide was supplied from Bachem (Bubendorf, Switzerland) and diluted in 0.1% BSA in saline. 0.1% BSA in saline was used as vehicle control for all experiments. Adropin (450 nmol/kg) or an equivalent volume of vehicle was delivered via intraperitoneal injection 15 minutes post-SAH. For experiments ending at 24 hours post-SAH, an identical dose of adropin/vehicle was given again 12 hours later. For experiments ending 7 days post-SAH, adropin/vehicle was given again on days 1, 3 & 5 post-SAH. In the aneurysm rupture model, adropin was given at a dose of 450 nmol/kg starting 3 days before aneurysm induction (elastase injection). Adropin was given every other day until sacrifice
SAH was modeled using the anterior circulation single autologous blood injection method^25,33 with minor adjustments. Mice were anesthetized with ketamine (100 mg/kg) and xylazine (10 mg/kg) before removing hair from scalp and cleaning with serial betadine—saline washes. The tail was also prepped from the base extending 1 cm distally. Mice were then fixed into a stereotaxic frame and body temperature maintained at 37° C. The scalp was incised along the sagittal suture from bregma to the nasal bone. […]
At 24 hours or 7 days post-SAH, mice were deeply anesthetized and perfused with 10 mL of ice-cold PBS. […] Samples were centrifuged, supernatant collected, and protein quantified via Bradford assay. […]

[1] = Mean arterial pressure in the aneurysm rupture model; assay type: in vivo, mouse; settings: before and after aneurysm induction, adropin vs vehicle
Description: as §1
Cerebral aneurysms were induced as previously described. Briefly, mice were anesthetized with ketamine (100 mg/kg) and xylazine (10 mg/kg) before the left common carotid artery and the right renal artery were ligated with 7-0 silk suture (Ethicon Inc., Somerville, New Jersey). Carotid and renal artery ligations are hereafter referred to as ligations. […]

adropin (CHSRSADVDSLSESSPNSSPGPCPEKAPPPQKPSHEGSYLLQP) [Synthetic adropin^34-76 peptide from Bachem]
cleaved MMP9 levels (immunoblot) (MMP9): an effect abolished by adropin treatment
systemic blood pressure / mean arterial pressure (MAP) [1]: No difference was found in blood pressure; also recorded: no effect on MAP before or after aneurysm induction
